Measurements: patent US20230187019A1, “METHOD FOR DETERMINING A DRUG COMBINATION VIA A BLOCKING MODEL OF A MULTI-SITE-TARGETED PROTEIN AND APPLICATIONS THEREOF” (National Tsing Hua University, priority 2021, published 2023)
“And” between values parts separate entries of the source, which are not always exact repeats. Identical values can stand only once. Like-named read-outs stand apart in the source and are kept apart here.

Key:
shCtrl/HCT116 = test: Cell viability assay on shCtrl/HCT116 (control strain); type: cell-based, human; settings: Homo sapiens, HCT-116, remaining viability, 20 μM drug, C strain; read-out: shCtrl/HCT116 Cell Viability
AK4.4 = test: Cell viability assay (MTT) on AK4.4; settings: for IC50: Mus musculus
Procedure: (§1) The cell viability was measured using the MTT assay or CellTiter-Glo Luminescent Cell Viability Assay. For MTT assay, mouse AK4.4 (1,000 cells/well) and human AsPC-1 (1,500 cells/well) cells were seeded in 96-well plates and cultured in serum-free medium (SFM) containing indicated concentrations of drugs for 48 hours. To measure the cell viability, 15 μL MTT (3-(4,5-dimethylthiazol-2-yl)-2,5-diphenyltetrazolium bromide, 5 mg/mL in PBS) was added in each well and kept at 37° C. for three hours. The precipitated crystals were then dissolved in 50 μL DMSO, and the absorbance at 570 nm was measured by Multiskan GO Microplate Spectrophotometer (Thermo Scientific, USA) to estimate the cell survival rate. To quantify the drug combination effect, the combination index was calculated when the cell viability was reduced by 50% using the following Equation (1):

shATG4B/HCT116 = test: Cell viability assay on shATG4B/HCT116 (ATG4B silencing strain); type: cell-based, human; settings: 20 μM drug, S strain
ATG4B [1] = biological target: T1, ATG4B (Homo sapiens, UniProt Q9Y4P1); test: ATG4B enzyme activity assay by S-tag-based immunoblotting; type: biochemical; settings: read-out: inhibition of ATG4B catalysis
Text: Protein expression and purification for the study of prediction of the allosteric sites in ATG4B Human ATG4B with N-terminal 6xHis-tag and human LC3B with both N-terminal 6xHis-tag and C-terminal S-tag were cloned into pETDuet-1 expression plasmids as previously described (Shu, C W et al., 2010, Autophagy 6, 936-947), subsequently transformed into E. coli BL21 (ECOS 21, Yeastern Biotech Co., FYE207-40VL). A single colony harboring the correctly in-frame inserted gene was inoculated into an overnight culture that was then diluted 100-fold in fresh Luria-Bertani broth with 50 μg/mL ampicillin for growing at 37° C. with 200 rpm agitation for 2 to 3 hours until the optical density of the culture at 600 nm reaches 0.4 (around 3×10^8 cells/mL). […]
The expression cell culture was harvested by 12,000×g centrifugation at 4° C. for 20 minutes, and the cell pellets of 1 liter broth were resuspended in a 10 mL lysis buffer (50 mM Tris-HCl, pH 7.4, 300 mM NaCl, 20 mM imidazole). […] The protein purity was verified >90% by Coomassie blue staining on SDS-PAGE, and the quantity was measured by bicinchoninic acid assay.
ATG4B enzyme activity assay was analyzed by immunoblotting. […] The intensities of remaining substrate LC3B after enzymatic cleavage were quantified by the software ImageJ.

ATG4B [2] = biological target: T1, ATG4B; test: In vitro cleavage assay of ATG4B catalytic activity (western blot of tagged LC3B); type: biochemical; settings: 10 μM; read-out: inhibition on ATG4B's catalytic activity
Procedure: (§2) The reagents were incubated at 37° C. for 30 minutes and then subjected to western blotting. The intensity of the band in the gel was calculated by using Image Studio Lite from LI-COR Biosciences or ImageJ.
(§3) The full-length LC3B fusion protein was used as the negative control and as the positive control when also incubated with ATG4B (FIG. 22A). […] A peptide that can inhibit ATG4B activity will weaken the fluorescence signal produced by the cleaved PLA2.

HCT116 = test: Cell viability assay on HCT116; type: cell-based, human
AsPC-1 = test: Cell viability assay (MTT) on AsPC-1
Procedure: as §1

[3] = test system: AK4.4 pancreatic ductal adenocarcinoma (PDAC) xenograft; settings: dose of 20 mg/kg, I.P.
[4] = in vivo
ATG4B [5] = biological target: T2, ATG4B (Homo sapiens, UniProt Q9Y4P1); test: In vitro cleavage assay of ATG4B catalytic activity (western blot of tagged LC3B); type: biochemical
T2 sequence (Q9Y4P1 whole entry, looked up): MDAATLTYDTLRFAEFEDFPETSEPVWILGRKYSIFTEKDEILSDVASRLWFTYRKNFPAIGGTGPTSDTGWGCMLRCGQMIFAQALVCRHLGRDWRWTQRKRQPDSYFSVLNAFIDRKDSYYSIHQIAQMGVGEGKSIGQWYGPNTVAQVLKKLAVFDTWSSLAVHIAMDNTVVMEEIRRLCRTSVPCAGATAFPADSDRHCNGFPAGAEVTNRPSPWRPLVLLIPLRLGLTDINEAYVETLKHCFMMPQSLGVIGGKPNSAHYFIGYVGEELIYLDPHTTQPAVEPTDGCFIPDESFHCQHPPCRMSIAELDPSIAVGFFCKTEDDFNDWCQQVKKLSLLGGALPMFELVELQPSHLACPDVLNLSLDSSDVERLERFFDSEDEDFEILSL
Procedure: as §2, §3

ATG4B [6] = biological target: T2, ATG4B; test: ATG4B activity reporter assay (cleaved PLA2 fluorescence); type: biochemical; parameters: host or cells: in silico model from PDB 2Z0D
Procedure: The inhibitory effect of the three designed peptides on ATG4B activity was tested using ATG4B cleavage assays and ATG4B activity reporter assays. […] The full-length LC3B fusion protein was used as the negative control and as the positive control when also incubated with ATG4B (FIG. 22A). […] A peptide that can inhibit ATG4B activity will weaken the fluorescence signal produced by the cleaved PLA2.

[7] = biological target: LC3B substrate of the ATG4B activity reporter assays (cleavage releases PLA2), Q9GZQ8; test: cell-based or functional assay
[8] = remaining viability, 20 μM drug, normalized by blank control, three repeats
[9] = Tc concentration for 50% reduction of viability in combination with 0.50 μM Mx
[10] = Tc concentration for 50% reduction of viability in combination with 1.00 μM Mx
[11] = Tc concentration for 50% reduction of viability in combination with 2.5 μM Vb
[12] = Tc concentration for 50% reduction of viability in combination with 5 μM Vb
[13] = Tc concentration for 50% reduction of viability in combination with 10 μM Vb

Molecule: CO/N=C1\C[C@]2(C[C@@H]3C[C@@H](C/C=C(\C)C[C@@H](C)/C=C/C=C4\CO[C@@H]5[C@H](O)C(C)=C[C@@H](C(=O)O3)[C@]45O)O2)O[C@H](/C(C)=C/C(C)C)[C@H]1C [Moxidectin]
- viability at 20 µM (shCtrl/HCT116): 1%
- IC50 (AK4.4; read-out: IC50, Mx, moxidectin alone, AK4.4 (Table 12)): 1.07 µM
- IC50 (AK4.4; read-out: IC50, Mx, moxidectin alone, AK4.4 (Table 14)): 0.87 µM
- CMx, 50 (AK4.4; Mx concentration in combination with Tc for a 50% reduction of the cell viability, listed as Mx): 0.50 µM and 1.00 µM
- CMx, 50 (AK4.4; Mx concentration in combination with Vb for a 50% reduction of the cell viability): 0.50 µM
- viability at 20 µM (shATG4B/HCT116; Homo sapiens, HCT-116, remaining viability, read-out: shATG4B/HCT116 Cell Viability): 1%
- shATG4B/HCT116 Cell Viability (shATG4B/HCT116; remaining viability): 0.9 ± 0.1%
- inhibition at 10 µM (ATG4B [1]; 10 μM): 36%
- inhibition at 20 µM (ATG4B [1]; 20 μM): > 80%
- inhibition at 10 µM (ATG4B [2]): 38%
- viability at 20 µM (HCT116; Homo sapiens, HCT-116, remaining viability, 20 μM drug, normalized by blank control, three repeats, read-out: HCT116 Cell Viability): 2%
- HCT116 Cell Viability (HCT116; [8]): 1.7 ± 0.1%
- viability at 20 µM (AsPC-1; Homo sapiens, ASPC1, read-out: AsPC-1 Cell Viability, remaining viability, 20 μM drug, normalized by blank control, three repeats): 8%
- IC50 (AsPC-1; Homo sapiens, ASPC1, read-out: IC50, Mx, moxidectin alone, AsPC-1 (Table 13)): 1.38 µM
- IC50 (AsPC-1; Homo sapiens, ASPC1, read-out: IC50, Mx, moxidectin alone, AsPC-1 (Table 15)): 1.24 µM
- CMx, 50 (AsPC-1; Mx concentration in combination with Vb for a 50% reduction of the cell viability, listed as Mx): 0.50 µM and 1.00 µM
- AsPC-1 Cell Viability (AsPC-1; [8]): 7.8 ± 0.8%

Molecule: Clc1ccc(C(Cn2ccnc2)OCc2ccsc2Cl)c(Cl)c1 (stereo not drawn) [tioconazole]
- tumor size measured on day 16 versus control group [3]: less than half of the tumor size in the control group
- IC50 (AK4.4; read-out: IC50, Tc, tioconazole alone, AK4.4 (Table 8)): 14 µM
- IC50 (AK4.4; read-out: IC50, Tc, tioconazole alone, AK4.4 (Table 11)): 12.5 µM
- IC50 (AK4.4; read-out: IC50, Tc, tioconazole alone, AK4.4 (Table 12)): 13 µM
- CTc, 50 (AK4.4; Tc concentration for 50% reduction of viability in combination with 0.05 μM Pn): 12.31 µM
- CTc, 50 (AK4.4; Tc concentration for 50% reduction of viability in combination with 0.1 μM Pn): 11.85 µM
- CTc, 50 (AK4.4; Tc concentration for 50% reduction of viability in combination with 0.25 μM Pn): 5.86 µM
- CTc, 50 (AK4.4; [9]): 13.42 µM
- CTc, 50 (AK4.4; Tc concentration for 50% reduction of viability in combination with 0.5 μM Pn): 0.17 µM
- CTc, 50 (AK4.4; [10]): 4.21 µM
- CTc, 50 (AK4.4; [11]): 12.07 µM
- CTc, 50 (AK4.4; [12]): 8.43 µM
- CTc, 50 (AK4.4; [13]): 5.88 µM
- liver weight, % of mouse body weight [4]: 5.69%
- increase in the liver (relative organ weight) ([4]; mouse): 8%
- increase in triglyceride as compared to the control ([4]; mouse): 25%
- triglyceride ([4]; mouse): 198.2 mg/dL
- decrease of cell viability of HCT116 (HCT116; human, 10 μM): 33%
- IC50 (AsPC-1; Homo sapiens, ASPC1, read-out: IC50, Tc, tioconazole alone, AsPC-1 (Table 9)): 13.5 µM
- IC50 (AsPC-1; Homo sapiens, ASPC1, read-out: IC50, Tc, tioconazole alone, AsPC-1 (Table 13)): 9.61 µM
- CTc, 50 (AsPC-1; [9]): 8.61 µM
- CTc, 50 (AsPC-1; [10]): 7.83 µM
- CTc, 50 (AsPC-1; Tc concentration for 50% reduction of viability in combination with 1.25 μM Mx): 5.65 µM
- CTc, 50 (AsPC-1; [11]): 8.14 µM
- CTc, 50 (AsPC-1; [12]): 6.32 µM
- CTc, 50 (AsPC-1; [13]): 5.21 µM

Molecule: Ac-YDTLGIF-NH2 [N-term-7]
- inhibition to ATG4B activity at lower peptide concentration (ATG4B [5]; 1 μM peptide): maintained
- inhibition to ATG4B activity (ATG4B [5]; ATG4B cleavage assays, 10 μM peptide): about 30%

Molecule: Ac-YDTLRFAEF-NH2 [N-term-9]
- inhibition to ATG4B activity at lower peptide concentration (ATG4B [6]; 1 μM peptide): maintained
- inhibition to ATG4B activity (ATG4B [6]; ATG4B activity reporter assays, 10 μM peptide): ~25%

Molecule: Ac-YDTLRFAEF-NH2 [N-term-9 (Ac-…-NH2)]
- inhibition to ATG4B activity (ATG4B activity reporter assays) [7]: 25%
